Assay results reported in PubChem BioAssay (NCI).
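Grown in 96-well plates, cells were treated for 48 hours with each compound at five concentrations. Insufficient inhibition: endpoint recorded as highest concentration tested. At the GI50, growth is halved. TGI is the concentration that stops growth completely.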

Assays:
Assay in all cases: NCI-60 cell line screen, 48 h
[1] = test system: 786-0 renal
[2] = test system: A498 renal
[3] = test system: A549 NSCLC
[4] = test system: ACHN renal
[5] = test system: BT-549 breast
[6] = test system: CAKI-1 renal
[7] = test system: CCRF-CEM leukemia
[8] = test system: COLO 205 colon
[9] = test system: DU-145 prostate
[10] = test system: EKVX NSCLC
[11] = test system: HCC-2998 colon
[12] = test system: HCT-116 colon
[13] = test system: HCT-15 colon
[14] = test system: HL-60(TB) leukemia
[15] = test system: HOP-62 NSCLC
[16] = test system: HOP-92 NSCLC
[17] = test system: HS 578T breast
[18] = test system: HT29 colon
[19] = test system: IGROV1 ovarian
[20] = test system: K-562 leukemia
[21] = test system: KM12 colon
[22] = test system: LOX IMVI melanoma
[23] = test system: M14 melanoma
[24] = test system: MALME-3M melanoma
[25] = test system: MCF7 breast
[26] = test system: MDA-MB-231 breast
[27] = test system: MDA-MB-435
[28] = test system: NCI-H226 lung
[29] = test system: NCI-H23 lung
[30] = test system: NCI-H460 lung
[31] = test system: NCI-H522 lung
[32] = test system: NCI/ADR-RES ovarian
[33] = test system: OVCAR-3 ovarian
[34] = test system: OVCAR-4 ovarian
[35] = test system: OVCAR-5 ovarian
[36] = test system: OVCAR-8 ovarian
[37] = test system: PC-3 prostate
[38] = test system: RPMI-8226 leukemia
[39] = test system: RXF 393 renal
[40] = test system: SF-268 CNS
[41] = test system: SF-295 CNS
[42] = test system: SF-539 CNS
[43] = test system: SK-MEL-2 melanoma
[44] = test system: SK-MEL-28 melanoma
[45] = test system: SK-MEL-5 melanoma
[46] = test system: SK-OV-3 ovarian
[47] = test system: SN12C renal
[48] = test system: SNB-19 CNS
[49] = test system: SNB-75 CNS
[50] = test system: SR leukemia
[51] = test system: SW-620 colon
[52] = test system: T-47D breast
[53] = test system: TK-10 renal
[54] = test system: U251 CNS
[55] = test system: UACC-257 melanoma
[56] = test system: UACC-62 melanoma
[57] = test system: UO-31 renal

C(#Cc1ccccc1C#Cc1cnccn1)c1cnccn1
GI50 [1]: 30.5 µM | TGI [1]: > 100 µM | GI50 [2]: 20.2 µM | TGI [2]: 72.1 µM | GI50 [3]: 34.5 µM | TGI [3]: > 86.3 µM | GI50 [4]: 19.2 µM | TGI [4]: > 68.9 µM | GI50 [5]: 21.6 µM | TGI [5]: > 85.8 µM | GI50 [6]: 12.5 µM | TGI [6]: 51.5 µM | GI50 [7]: 32.3 µM | TGI [7]: > 100 µM | GI50 [8]: 54.8 µM | TGI [8]: > 100 µM | GI50 [9]: 21.8 µM | TGI [9]: > 100 µM | GI50 [10]: 35.3 µM | TGI [10]: > 100 µM | GI50 [11]: 32.2 µM | TGI [11]: > 100 µM | GI50 [12]: 27.8 µM | TGI [12]: > 100 µM | GI50 [13]: 17.5 µM | TGI [13]: 56 µM | GI50 [14]: 9.32 µM | TGI [14]: 22.5 µM | GI50 [15]: 26.3 µM | TGI [15]: 85.8 µM | GI50 [16]: 79.5 µM | TGI [16]: > 100 µM | GI50 [17]: 34.9 µM | TGI [17]: > 100 µM | GI50 [18]: 41.8 µM | TGI [18]: > 100 µM | GI50 [19]: > 22.9 µM | TGI [19]: > 47.9 µM | GI50 [20]: 9.02 µM | TGI [20]: > 44.3 µM | GI50 [21]: 26.1 µM | TGI [21]: 68.3 µM | GI50 [22]: 17.3 µM | TGI [22]: 53.4 µM | GI50 [23]: 19.3 µM | TGI [23]: 48.9 µM | GI50 [24]: 29.8 µM | TGI [24]: 80.4 µM | GI50 [25]: 24.9 µM | TGI [25]: > 67.5 µM | GI50 [26]: 21.4 µM | TGI [26]: > 71.9 µM | GI50 [27]: 18.5 µM | TGI [27]: 51.8 µM | GI50 [28]: 28.1 µM | TGI [28]: > 78.4 µM | GI50 [29]: 21.9 µM | TGI [29]: 57.3 µM | GI50 [30]: 18.3 µM | TGI [30]: > 71.9 µM | GI50 [31]: > 39.2 µM | TGI [31]: > 61.7 µM | GI50 [32]: 23.2 µM | TGI [32]: > 75.8 µM | GI50 [33]: 21.5 µM | TGI [33]: > 63.1 µM | GI50 [34]: 38.3 µM | TGI [34]: > 100 µM | GI50 [35]: > 61.7 µM | TGI [35]: > 100 µM | GI50 [36]: 38.2 µM | TGI [36]: > 72.6 µM | GI50 [37]: 18.6 µM | TGI [37]: 55.3 µM | GI50 [38]: 21.2 µM | TGI [38]: > 63.4 µM | GI50 [39]: > 100 µM | TGI [39]: > 100 µM | GI50 [40]: 17.3 µM | TGI [40]: 55.3 µM | GI50 [41]: 30.3 µM | TGI [41]: > 74 µM | GI50 [42]: 27.8 µM | TGI [42]: > 100 µM | GI50 [43]: > 38.9 µM | TGI [43]: > 61.1 µM | GI50 [44]: 46.9 µM | TGI [44]: > 100 µM | GI50 [45]: 16.9 µM | TGI [45]: 35.9 µM | GI50 [46]: 56 µM | TGI [46]: > 100 µM | GI50 [47]: 24.1 µM | TGI [47]: > 87.1 µM | GI50 [48]: > 100 µM | TGI [48]: > 100 µM | GI50 [49]: 29.2 µM | TGI [49]: > 100 µM | GI50 [50]: 6.81 µM | TGI [50]: > 100 µM | GI50 [51]: 40.2 µM | TGI [51]: > 100 µM | GI50 [52]: 39.7 µM | TGI [52]: > 100 µM | GI50 [53]: 27.2 µM | TGI [53]: > 78.2 µM | GI50 [54]: 48 µM | TGI [54]: > 100 µM | GI50 [55]: 22.7 µM | TGI [55]: > 58.6 µM | GI50 [56]: 17.5 µM | TGI [56]: 51.4 µM | GI50 [57]: > 40.3 µM | TGI [57]: > 68.4 µM
